PubChem BioAssay AID2060619 (Molecular Pharmacology Branch, DTP, NCI, 2025)

System: 323965-272-R-J2-PDC complex spheroid viability
Experiment: Anticancer human tumor 323965-272-R-J2-PDC patient-derived pancreatic carcinoma cell line growth inhibition [CLK]
Settings: for viability, T/C: stronger effect = lower value; for IC50: curve of first compound
Excerpt: A high-throughput screen of multi-cell type tumor spheroids was designed to identify active combinations of […] and targeted small molecules. Complex spheroids include a stromal component modeled by human endothelial cells (HUVEC) and fibroblasts modeled by human mesenchymal stem cells (MSCs). The concentration ranges selected for each drug and investigational agent were based upon clinically achievable concentrations if the clinical Cmax of the agent was known.
Compounds. The drugs and investigational agents: cirtuvivint (SM08502; NSC835563), CC-671 (NSC850746), vemurafenib (NSC761431), tapotoclax (NSC804041), sotorasib (NSC818433), adagrasib (NSC831453), MRTX-1133 (NSC836407), BAY2416964 (NSC825713), copanlisib (NSC816437), inavolisib (NSC800729), abemaciclib (NSC768073), osimertinib (NSC779217), entinostat (NSC756642), eltanexor (KPT-8602, NSC794443), venetoclax (NSC766270), ceralasertib (NSC777638), bortezomib (NSC756655), olaparib (NSC753686), talazoparib (NSC767125), alisertib (NSC759677), peposertib (NSC802822), gemcitabine (NSC613327), 5-fluorouracil (NSC19893), SN-38 (NSC673596), oxaliplatin (NSC266046), paclitaxel (NSC125973), and doxorubicin (NSC123127), were obtained from the National Cancer Institute (NCI) Developmental Therapeutics Program Chemical Repository. The FDA-approved anticancer drug set is available from the Developmental Therapeutics Program at https://dtp.cancer.gov/organization/dscb/obtaining/available plates.htm. […] The stock solutions were prepared in dimethyl sulfoxide (DMSO, Sigma-Aldrich, St. Louis, MO, cat. D2650), except for the platinum complexes which were prepared in saline (Quality Biological, Gaithersburg, MD, cat. 114-055-101), at 800-fold the tested concentration and stored at -70 degrees C prior to their use. All drugs and investigational agents were tested over a range starting from a high concentration at or near the clinical Cmax and decreasing in half-log increments. If the clinical Cmax for an agent had not been determined, the highest concentration tested was 10 microM.
Cell Culture. All cells were maintained in an incubator at 37 degrees C and 5% CO2 with 95% humidity. The PDC lines were cultured according to standard operating procedures established by the NCI PDMR. Briefly, all PDCs were thawed and cultured in Matrigel-coated flasks prepared with a working solution of 1X Ham's F-12 nutrient mix, without supplementation (Invitrogen, Waltham, MA, cat. 11765054), 100 U/mL penicillin-streptomycin (Invitrogen, cat. 15140122), and 2.5% Matrigel (Corning Inc., Corning, NY, cat. 354248) for the first three passages. The 947758-054-R-J2-PDC line was cultured in 6B/Colon 1A media, which includes advanced DMEM/F-12 (Thermo Fisher Scientific, cat. 12634028), 10 mM HEPES (Thermo Fisher Scientific, cat. 15630080), 1X GlutaMAX supplement (Thermo Fisher Scientific, cat. 35050061), 0.1 mg/mL primocin (InvivoGen, cat. ant-pm-2), 10% defined fetal bovine serum, heat inactivated (HyClone Laboratories Inc., cat. SH30070.03HI), 1.25 mM N-Acetyl-L-cysteine (Sigma-Aldrich, cat. A9165), 10 mM nicotinamide (Sigma-Aldrich, cat. N0636), 1X B-27 supplement (Thermo Fisher Scientific, cat. 17504044), 1X N-2 supplement (Thermo Fisher Scientific, cat. 17502048), and 10 microM Y-27632 dihydrochloride (Tocris Bioscience, cat. 1254). The 876862-298-R-J1-PDC was cultured in 6E media, which includes all 6B/Colon 1A media components plus 50% L-WRN conditioned media (ATCC, cat. CRL-3276), 50 ng/mL recombinant human EGF recombinant protein (hEGF; Thermo Fisher Scientific, cat. PHG0311), 10 ng/mL recombinant human fibroblast growth factor 10 (hGFG-10; PeproTech, cat. 100-26), 1 ng/mL recombinant human fibroblast growth factor 2 (hFGF-2; PeproTech, cat. 100-18B), and 1 µM prostaglandin E2 (PGE2; Tocris, cat. 2296). The 227483-062-R1-J1-PDC line was cultured in Panc media, containing all 6E components except hFGF-2, with the addition of 500 nM SB-431542 (Selleckchem, cat. S1067) and 10 nM gastrin (Tocris, cat. 3006). […]

[1] = second compound 0.0316 µM, first compound 0.0316 µM
[2] = second compound 0.0316 µM, first compound 0.1 µM
[3] = second compound 0.0316 µM, first compound 0.316 µM
[4] = second compound 0.0316 µM, first compound 1 µM
[5] = second compound 0.0316 µM, first compound 3.16 µM
[6] = second compound 0.0316 µM, first compound 10 µM
[7] = second compound 0.1 µM, first compound 0.0316 µM
[8] = second compound 0.1 µM, first compound 0.1 µM
[9] = second compound 0.1 µM, first compound 0.316 µM
[10] = second compound 0.1 µM, first compound 1 µM
[11] = second compound 0.1 µM, first compound 3.16 µM
[12] = second compound 0.1 µM, first compound 10 µM
[13] = second compound 0.316 µM, first compound 0.0316 µM
[14] = second compound 0.316 µM, first compound 0.1 µM
[15] = second compound 0.316 µM, first compound 0.316 µM
[16] = second compound 0.316 µM, first compound 1 µM
[17] = second compound 0.316 µM, first compound 3.16 µM
[18] = second compound 0.316 µM, first compound 10 µM
[19] = second compound 1 µM, first compound 0.0316 µM
[20] = second compound 1 µM, first compound 0.1 µM
[21] = second compound 1 µM, first compound 0.316 µM
[22] = second compound 1 µM, first compound 1 µM
[23] = second compound 1 µM, first compound 3.16 µM
[24] = second compound 1 µM, first compound 10 µM
[25] = second compound 3.16 µM, first compound 0.0316 µM
[26] = second compound 3.16 µM, first compound 0.1 µM
[27] = second compound 3.16 µM, first compound 0.316 µM
[28] = second compound 3.16 µM, first compound 1 µM
[29] = second compound 3.16 µM, first compound 3.16 µM
[30] = second compound 3.16 µM, first compound 10 µM
[31] = second compound 10 µM, first compound 0.0316 µM
[32] = second compound 10 µM, first compound 0.1 µM
[33] = second compound 10 µM, first compound 0.316 µM
[34] = second compound 10 µM, first compound 1 µM
[35] = second compound 10 µM, first compound 3.16 µM
[36] = second compound 10 µM, first compound 10 µM
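Further: spheroids exposed to agents for seven days before readout.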
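Wherever viability, T/C is given: percent of DMSO vehicle control wells so 100% = untreated growth.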

`CNC(=O)c1ccc(Nc2nc(OC3CCCC3)c3c(-c4ccc5nc(C)oc5c4)c[nH]c3n2)c(OC)c1` was tested, and the viability, T/C (compound 0.1 µM) was 87.2% [middle of 12 runs], the viability, T/C (compound 0.316 µM) was 65.7% [middle of 12 runs] and the viability, T/C (compound 1 µM) was 49.8% [middle of 12 runs]. For the same molecule, the viability, T/C (compound 3.16 µM) was 44.7% [middle of 12 runs] and the viability, T/C (compound 10 µM) was 47.2% [middle of 12 runs].
`C#Cc1c(F)ccc2cc(O)cc(-c3ncc4c(N5CC6CCC(C5)N6)nc(OCC56CCCN5CC(F)C6)nc4c3F)c12` (stereo unspecified) + CN1CCN(c2cc(C(=O)Nc3cc4cc(-c5cnn(C)c5)ccc4cn3)ccn2)CC1 showed an IC50 (second compound 0.0316 µM) greater than 10000 nM, an IC50 (second compound 0.1 µM) of 3050 nM and an IC50 (second compound 0.316 µM) of less than 31.6 nM. It also gave an IC50 (second compound 1 µM) of less than 31.6 nM, an IC50 (second compound 3.16 µM) of less than 31.6 nM and an IC50 (second compound 10 µM) of less than 31.6 nM. The viability, T/C [1] was 101%, the viability, T/C [2] was 101% and the viability, T/C [3] was 101%. It also gave a viability, T/C [4] of 95.8%, a viability, T/C [5] of 67.1% and a viability, T/C [6] of 50.9%. For the same molecule, the viability, T/C [7] was 68.8%, the viability, T/C [8] was 73.2% and the viability, T/C [9] was 71.1%. For the same molecule, the viability, T/C [10] was 63.3%, the viability, T/C [11] was 49.9% and the viability, T/C [12] was 42.6%. For the same molecule, the viability, T/C [13] was 28.4%, the viability, T/C [14] was 25.6% and the viability, T/C [15] was 24.8%. It also gave a viability, T/C [16] of 22.9%, a viability, T/C [17] of 17.8% and a viability, T/C [18] of 15.1%. It also gave a viability, T/C [19] of 3.55%, a viability, T/C [20] of 3.52% and a viability, T/C [21] of 3.35%. For the same molecule, the viability, T/C [22] was 3.07%, the viability, T/C [23] was 2.52% and the viability, T/C [24] was 2.87%. For the same molecule, the viability, T/C [25] was 3.72%, the viability, T/C [26] was 4.19% and the viability, T/C [27] was 3.39%. The viability, T/C [28] was 3.07%, the viability, T/C [29] was 3.51% and the viability, T/C [30] was 5.09%. For the same molecule, the viability, T/C [31] was 4.24%, the viability, T/C [32] was 4.08% and the viability, T/C [33] was 5.09%. For the same molecule, the viability, T/C [34] was 3.16%, the viability, T/C [35] was 3.48% and the viability, T/C [36] was 3.19%.
With `COC1C=CCC(C)C(C)S(=O)(=O)NC(=O)c2ccc3c(c2)N(CC2CCC21)CC1(CCCc2cc(Cl)ccc21)CO3` (stereo unspecified) + CN1CCN(c2cc(C(=O)Nc3cc4cc(-c5cnn(C)c5)ccc4cn3)ccn2)CC1 the IC50 (second compound 0.0316 µM) was 841 nM, the IC50 (second compound 0.1 µM) was 456 nM and the IC50 (second compound 0.316 µM) was less than 31.6 nM. For the same molecule, the IC50 (second compound 1 µM) was less than 31.6 nM, the IC50 (second compound 3.16 µM) was less than 31.6 nM and the IC50 (second compound 10 µM) was less than 31.6 nM. It also gave a viability, T/C [1] of 97.8%, a viability, T/C [2] of 92.1% and a viability, T/C [3] of 62%. It also gave a viability, T/C [4] of 47.8%, a viability, T/C [5] of 30% and a viability, T/C [6] of 12.3%. For the same molecule, the viability, T/C [7] was 72.5%, the viability, T/C [8] was 67% and the viability, T/C [9] was 53.5%. The viability, T/C [10] was 39.1%, the viability, T/C [11] was 28.9% and the viability, T/C [12] was 10.4%. It also gave a viability, T/C [13] of 27.5%, a viability, T/C [14] of 26.2% and a viability, T/C [15] of 21.1%. The viability, T/C [16] was 17.7%, the viability, T/C [17] was 15.1% and the viability, T/C [18] was 9.86%. For the same molecule, the viability, T/C [19] was 3.35%, the viability, T/C [20] was 4.19% and the viability, T/C [21] was 4.18%. For the same molecule, the viability, T/C [22] was 3.31%, the viability, T/C [23] was 1.96% and the viability, T/C [24] was 2.43%. The viability, T/C [25] was 3.51%, the viability, T/C [26] was 3.78% and the viability, T/C [27] was 3.33%. For the same molecule, the viability, T/C [28] was 3.25%, the viability, T/C [29] was 2.59% and the viability, T/C [30] was 2.44%. The viability, T/C [31] was 5.25%, the viability, T/C [32] was 3.97% and the viability, T/C [33] was 3.84%. For the same molecule, the viability, T/C [34] was 3.47%, the viability, T/C [35] was 2.83% and the viability, T/C [36] was 2.37%.
Molecule `CC(CO)NC(=O)c1cc(-c2ccc(Cl)cc2)nn(-c2cnn(C)c2)c1=O` (stereo unspecified) + CN1CCN(c2cc(C(=O)Nc3cc4cc(-c5cnn(C)c5)ccc4cn3)ccn2)CC1 has an IC50 (second compound 0.0316 µM) greater than 10000 nM, an IC50 (second compound 0.1 µM) greater than 10000 nM and an IC50 (second compound 0.316 µM) of less than 31.6 nM. It also gave an IC50 (second compound 1 µM) of less than 31.6 nM, an IC50 (second compound 3.16 µM) of less than 31.6 nM and an IC50 (second compound 10 µM) of less than 31.6 nM. For the same molecule, the viability, T/C [1] was 97.3%, the viability, T/C [2] was 102% and the viability, T/C [3] was 103%. The viability, T/C [4] was 87.4%, the viability, T/C [5] was 112% and the viability, T/C [6] was 113%. For the same molecule, the viability, T/C [7] was 68%, the viability, T/C [8] was 80.5% and the viability, T/C [9] was 83.1%. It also gave a viability, T/C [10] of 72.5%, a viability, T/C [11] of 76% and a viability, T/C [12] of 89.5%. The viability, T/C [13] was 25.8%, the viability, T/C [14] was 27.2% and the viability, T/C [15] was 25%. The viability, T/C [16] was 22.3%, the viability, T/C [17] was 28.2% and the viability, T/C [18] was 32.8%. It also gave a viability, T/C [19] of 3.75%, a viability, T/C [20] of 3.59% and a viability, T/C [21] of 4.21%. The viability, T/C [22] was 3.61%, the viability, T/C [23] was 3.03% and the viability, T/C [24] was 3.2%. It also gave a viability, T/C [25] of 4.17%, a viability, T/C [26] of 3.62% and a viability, T/C [27] of 3.4%. The viability, T/C [28] was 3.82%, the viability, T/C [29] was 4.87% and the viability, T/C [30] was 4.3%. It also gave a viability, T/C [31] of 4.55%, a viability, T/C [32] of 5.29% and a viability, T/C [33] of 4.22%. It also gave a viability, T/C [34] of 3.24%, a viability, T/C [35] of 3.64% and a viability, T/C [36] of 3.17%.
